Laboratory results as given in ChEMBL document CHEMBL2074103, “Up-regulation of the multidrug resistance genes, Mrp1 and Mdr1b, and down-regulation of the organic anion transporter, Mrp2, and the bile salt transporter, Spgp, in endotoxemic rat liver” (Hepatology, 1998).

Experiments:
Assay type in all cases: functional, organism-based
[1] = biological target: Multidrug resistance protein 1a (Rattus norvegicus) (UniProt Q6PSM0); test: (§1) TP_TRANSPORTER: Western in vivo, liver of Wistar rat
[2] = biological target: T1, Multidrug resistance-associated protein 1 (Rattus norvegicus, UniProt Q8CG09); test: as §1
[3] = biological target: T2, ATP-binding cassette sub-family C member 2 (Rattus norvegicus, UniProt Q63120); test: as §1
Bile salt export pump [4] = biological target: T3, Bile salt export pump (Rattus norvegicus, UniProt O70127); test: as §1
T3 sequence (O70127 whole entry): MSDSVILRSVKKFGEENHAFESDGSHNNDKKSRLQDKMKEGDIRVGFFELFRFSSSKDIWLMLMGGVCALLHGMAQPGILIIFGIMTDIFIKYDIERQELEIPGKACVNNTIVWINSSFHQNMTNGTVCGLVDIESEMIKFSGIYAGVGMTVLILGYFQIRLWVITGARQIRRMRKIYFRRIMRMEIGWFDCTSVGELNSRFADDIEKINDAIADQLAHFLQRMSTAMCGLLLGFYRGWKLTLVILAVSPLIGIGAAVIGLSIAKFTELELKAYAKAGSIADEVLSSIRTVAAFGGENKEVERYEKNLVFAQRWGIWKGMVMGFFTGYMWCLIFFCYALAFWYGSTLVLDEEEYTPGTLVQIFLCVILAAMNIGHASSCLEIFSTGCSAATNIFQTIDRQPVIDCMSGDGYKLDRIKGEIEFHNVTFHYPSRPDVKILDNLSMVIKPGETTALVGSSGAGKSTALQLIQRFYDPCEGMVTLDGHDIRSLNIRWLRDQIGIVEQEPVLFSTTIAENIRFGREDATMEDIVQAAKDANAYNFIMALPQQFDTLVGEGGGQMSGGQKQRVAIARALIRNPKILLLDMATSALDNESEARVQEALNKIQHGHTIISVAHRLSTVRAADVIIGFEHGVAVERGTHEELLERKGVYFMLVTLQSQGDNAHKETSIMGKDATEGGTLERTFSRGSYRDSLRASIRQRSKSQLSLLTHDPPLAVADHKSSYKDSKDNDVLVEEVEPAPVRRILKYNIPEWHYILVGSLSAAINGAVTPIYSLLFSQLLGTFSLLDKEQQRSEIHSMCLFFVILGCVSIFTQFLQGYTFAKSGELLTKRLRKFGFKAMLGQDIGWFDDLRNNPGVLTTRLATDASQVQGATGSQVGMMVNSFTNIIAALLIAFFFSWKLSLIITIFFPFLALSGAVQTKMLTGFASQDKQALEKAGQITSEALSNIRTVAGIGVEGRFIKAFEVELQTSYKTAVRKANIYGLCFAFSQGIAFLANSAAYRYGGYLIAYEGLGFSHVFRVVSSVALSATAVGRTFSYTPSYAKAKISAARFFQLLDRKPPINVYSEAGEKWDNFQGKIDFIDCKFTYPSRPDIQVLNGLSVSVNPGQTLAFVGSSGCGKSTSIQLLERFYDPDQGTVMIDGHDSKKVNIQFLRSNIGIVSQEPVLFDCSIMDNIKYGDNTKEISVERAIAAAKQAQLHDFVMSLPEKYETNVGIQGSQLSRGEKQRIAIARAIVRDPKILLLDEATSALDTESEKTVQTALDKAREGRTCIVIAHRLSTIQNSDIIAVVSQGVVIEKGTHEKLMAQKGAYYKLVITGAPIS

[5] = biological target: ATP-dependent translocase ABCB1 (Rattus norvegicus, UniProt P43245); test: (§2) TP_TRANSPORTER: RT-PCR in vivo, liver of Wistar rat
[6] = biological target: T1, Multidrug resistance-associated protein 1; test: as §2
[7] = biological target: T2, ATP-binding cassette sub-family C member 2; test: as §2
Bile salt export pump [8] = biological target: T3, Bile salt export pump; test: as §2

T2 sequence (Q63120 whole entry): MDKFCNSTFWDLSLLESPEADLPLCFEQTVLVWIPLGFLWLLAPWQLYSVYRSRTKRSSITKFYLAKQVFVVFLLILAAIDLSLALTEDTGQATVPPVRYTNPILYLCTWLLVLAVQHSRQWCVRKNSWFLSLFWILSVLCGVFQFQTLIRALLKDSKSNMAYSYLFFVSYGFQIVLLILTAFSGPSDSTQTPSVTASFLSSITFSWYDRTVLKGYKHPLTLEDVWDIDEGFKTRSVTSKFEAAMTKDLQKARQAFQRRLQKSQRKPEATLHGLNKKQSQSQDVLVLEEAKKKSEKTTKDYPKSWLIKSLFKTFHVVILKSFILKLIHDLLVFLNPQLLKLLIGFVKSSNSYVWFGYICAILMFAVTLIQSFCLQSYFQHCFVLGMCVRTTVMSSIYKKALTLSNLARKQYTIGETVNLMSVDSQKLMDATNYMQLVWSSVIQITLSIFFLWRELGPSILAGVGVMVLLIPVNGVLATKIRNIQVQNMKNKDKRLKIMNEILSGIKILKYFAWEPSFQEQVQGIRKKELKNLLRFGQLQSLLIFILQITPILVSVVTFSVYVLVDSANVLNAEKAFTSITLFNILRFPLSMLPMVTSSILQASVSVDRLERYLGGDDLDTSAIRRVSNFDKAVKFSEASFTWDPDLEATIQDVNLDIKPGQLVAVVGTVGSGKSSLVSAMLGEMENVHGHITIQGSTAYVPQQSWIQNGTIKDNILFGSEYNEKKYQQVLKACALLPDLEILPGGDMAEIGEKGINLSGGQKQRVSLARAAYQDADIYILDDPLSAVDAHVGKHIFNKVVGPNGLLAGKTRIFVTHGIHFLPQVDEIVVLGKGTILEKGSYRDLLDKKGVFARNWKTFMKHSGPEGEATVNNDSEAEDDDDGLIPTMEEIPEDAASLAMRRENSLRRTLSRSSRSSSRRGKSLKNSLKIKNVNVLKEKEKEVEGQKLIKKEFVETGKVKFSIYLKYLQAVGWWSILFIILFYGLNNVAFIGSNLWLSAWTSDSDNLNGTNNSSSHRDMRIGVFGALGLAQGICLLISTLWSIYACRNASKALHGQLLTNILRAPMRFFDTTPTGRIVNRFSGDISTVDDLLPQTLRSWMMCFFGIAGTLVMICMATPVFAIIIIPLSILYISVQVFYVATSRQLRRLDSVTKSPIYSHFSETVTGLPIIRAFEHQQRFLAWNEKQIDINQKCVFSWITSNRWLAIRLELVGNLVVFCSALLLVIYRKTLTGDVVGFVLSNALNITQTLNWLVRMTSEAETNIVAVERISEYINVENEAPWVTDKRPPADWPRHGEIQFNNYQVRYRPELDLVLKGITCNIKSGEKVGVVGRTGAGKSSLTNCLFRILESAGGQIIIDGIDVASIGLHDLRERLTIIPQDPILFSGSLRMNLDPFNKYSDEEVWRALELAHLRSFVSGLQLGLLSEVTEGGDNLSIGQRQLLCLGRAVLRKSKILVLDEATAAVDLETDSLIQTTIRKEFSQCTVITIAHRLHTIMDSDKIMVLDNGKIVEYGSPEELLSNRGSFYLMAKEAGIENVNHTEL
T1 sequence (Q8CG09 whole entry): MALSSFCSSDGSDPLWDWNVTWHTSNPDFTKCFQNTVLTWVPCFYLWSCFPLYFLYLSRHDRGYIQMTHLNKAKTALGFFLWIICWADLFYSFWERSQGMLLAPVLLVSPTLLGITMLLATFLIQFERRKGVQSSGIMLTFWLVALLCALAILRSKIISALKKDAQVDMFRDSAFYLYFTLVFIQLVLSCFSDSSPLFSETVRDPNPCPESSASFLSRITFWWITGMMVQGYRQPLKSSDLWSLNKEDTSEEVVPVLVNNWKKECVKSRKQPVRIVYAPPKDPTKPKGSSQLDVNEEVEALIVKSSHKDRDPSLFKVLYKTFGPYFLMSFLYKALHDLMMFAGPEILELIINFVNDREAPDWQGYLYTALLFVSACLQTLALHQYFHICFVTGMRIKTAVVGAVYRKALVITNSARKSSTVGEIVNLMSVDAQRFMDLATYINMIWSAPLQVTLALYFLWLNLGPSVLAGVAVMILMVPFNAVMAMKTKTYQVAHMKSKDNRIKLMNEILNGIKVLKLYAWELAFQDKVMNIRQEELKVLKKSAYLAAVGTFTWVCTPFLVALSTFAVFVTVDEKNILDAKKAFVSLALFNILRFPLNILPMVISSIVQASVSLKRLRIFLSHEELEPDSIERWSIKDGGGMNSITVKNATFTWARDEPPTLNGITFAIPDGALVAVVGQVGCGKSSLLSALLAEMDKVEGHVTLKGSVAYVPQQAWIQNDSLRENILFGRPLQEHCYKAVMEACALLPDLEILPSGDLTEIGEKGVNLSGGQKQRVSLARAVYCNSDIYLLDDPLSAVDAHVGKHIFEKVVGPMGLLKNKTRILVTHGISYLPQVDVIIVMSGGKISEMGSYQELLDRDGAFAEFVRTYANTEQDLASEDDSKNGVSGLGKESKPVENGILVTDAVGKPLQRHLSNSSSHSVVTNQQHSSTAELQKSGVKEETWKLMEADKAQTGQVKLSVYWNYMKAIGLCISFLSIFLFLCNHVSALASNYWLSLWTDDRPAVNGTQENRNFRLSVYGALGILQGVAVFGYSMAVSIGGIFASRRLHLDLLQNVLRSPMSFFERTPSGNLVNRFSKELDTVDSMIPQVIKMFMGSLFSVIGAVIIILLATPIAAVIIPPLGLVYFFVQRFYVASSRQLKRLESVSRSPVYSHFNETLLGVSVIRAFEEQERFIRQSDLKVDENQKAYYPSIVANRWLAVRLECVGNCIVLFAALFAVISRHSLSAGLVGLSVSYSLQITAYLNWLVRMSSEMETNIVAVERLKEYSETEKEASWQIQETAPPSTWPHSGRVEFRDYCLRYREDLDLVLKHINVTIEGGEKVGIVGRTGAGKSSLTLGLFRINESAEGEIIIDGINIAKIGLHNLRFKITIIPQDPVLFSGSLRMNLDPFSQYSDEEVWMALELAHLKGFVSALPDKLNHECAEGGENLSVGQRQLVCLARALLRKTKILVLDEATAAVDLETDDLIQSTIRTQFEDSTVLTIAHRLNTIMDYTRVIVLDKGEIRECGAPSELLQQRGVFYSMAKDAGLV
Chain of ATP-dependent translocase ABCB1 (P43245 whole entry): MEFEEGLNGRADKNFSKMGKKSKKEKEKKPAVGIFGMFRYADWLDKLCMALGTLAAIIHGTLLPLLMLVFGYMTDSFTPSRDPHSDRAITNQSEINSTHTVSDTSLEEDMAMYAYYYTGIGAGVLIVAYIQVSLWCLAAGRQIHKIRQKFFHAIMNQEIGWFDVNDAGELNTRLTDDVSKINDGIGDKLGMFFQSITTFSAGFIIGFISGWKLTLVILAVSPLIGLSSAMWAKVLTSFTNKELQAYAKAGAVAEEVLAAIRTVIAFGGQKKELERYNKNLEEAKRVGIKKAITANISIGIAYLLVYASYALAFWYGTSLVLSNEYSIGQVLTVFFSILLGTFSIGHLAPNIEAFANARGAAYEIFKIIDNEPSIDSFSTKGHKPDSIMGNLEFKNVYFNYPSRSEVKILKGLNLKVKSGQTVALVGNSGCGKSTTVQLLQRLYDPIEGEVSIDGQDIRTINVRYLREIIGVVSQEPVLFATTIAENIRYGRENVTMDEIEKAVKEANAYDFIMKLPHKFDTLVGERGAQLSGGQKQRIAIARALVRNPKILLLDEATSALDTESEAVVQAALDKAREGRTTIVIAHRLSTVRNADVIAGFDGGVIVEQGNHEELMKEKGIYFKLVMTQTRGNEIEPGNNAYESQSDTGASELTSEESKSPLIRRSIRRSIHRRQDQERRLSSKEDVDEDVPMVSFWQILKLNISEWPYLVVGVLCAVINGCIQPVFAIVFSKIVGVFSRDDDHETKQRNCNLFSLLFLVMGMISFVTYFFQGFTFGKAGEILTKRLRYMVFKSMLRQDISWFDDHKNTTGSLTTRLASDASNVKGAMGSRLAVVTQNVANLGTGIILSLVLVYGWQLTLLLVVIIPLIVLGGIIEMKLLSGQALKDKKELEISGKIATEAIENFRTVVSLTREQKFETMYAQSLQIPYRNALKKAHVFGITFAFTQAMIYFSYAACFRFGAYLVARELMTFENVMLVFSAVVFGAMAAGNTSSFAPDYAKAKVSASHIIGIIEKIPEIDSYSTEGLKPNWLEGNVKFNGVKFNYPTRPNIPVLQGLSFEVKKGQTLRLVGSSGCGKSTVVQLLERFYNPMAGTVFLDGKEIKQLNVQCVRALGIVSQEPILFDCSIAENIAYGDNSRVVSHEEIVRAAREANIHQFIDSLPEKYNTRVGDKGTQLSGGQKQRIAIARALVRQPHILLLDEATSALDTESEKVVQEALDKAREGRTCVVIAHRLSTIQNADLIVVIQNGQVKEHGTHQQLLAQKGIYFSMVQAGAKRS

With `CCCCCCCCCCCCCC(=O)OC(CCCCCCCCCCC)CC(=O)OC1C(NC(=O)CC(CCCCCCCCCCC)OC(=O)CCCCCCCCCCC)C(OC2CC(OC(=O)CC(O)CCCCCCCCCCC)C(NC(=O)CC(O)CCCCCCCCCCC)C(O)O2)OC(CO)C1OP(=O)(O)O` (stereo not drawn) as the compound, how does the Activity [1] read?
The Activity was “inducer [Decrease]”.

And the Activity [2]?
Its Activity is “inducer [+]”.

What about the Activity [3] of the same compound?
The Activity was “inducer [Decrease]”.

And the Activity (Bile salt export pump [4])?
The Activity was “inducer [Decrease]”.

And the Activity [5]?
The Activity was “inducer [+]”.

And the Activity [6]?
Its Activity is “inducer [+]”.

And the Activity [7]?
Its Activity is “inducer [Decrease]”.

And the Activity (Bile salt export pump [8])?
Its Activity is “inducer [Decrease]”.
